Where “and” joins values, the source holds several entries; their conditions need not be identical. Equal values may be shown once.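 Briefly, cells in 96-well plates were exposed to five compound concentrations for 48 h, and endpoints were estimated by linear interpolation. GI50 marks 50% less growth. TGI marks complete inhibition of growth.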
Legend:
Test in all cases: inhibition of tumour cell growth, NCI panel, 48 h
CAKI-1 renal = test system: CAKI-1 renal
HCC-2998 colon = test system: HCC-2998 colon
HL-60(TB) leukemia = test system: HL-60(TB) leukemia
HOP-62 NSCLC = test system: HOP-62 NSCLC
HT29 colon = test system: HT29 colon
KM12 colon = test system: KM12 colon
NCI-H23 lung = test system: NCI-H23 lung
NCI-H460 lung = test system: NCI-H460 lung
OVCAR-5 ovarian = test system: OVCAR-5 ovarian
UO-31 renal = test system: UO-31 renal

SMILES | TGI (CAKI-1 renal) | TGI (HCC-2998 colon) | TGI (HL-60(TB) leukemia) | TGI (HOP-62 NSCLC) | TGI (HT29 colon) | TGI (KM12 colon) | TGI (NCI-H23 lung) | TGI (NCI-H460 lung) | TGI (OVCAR-5 ovarian) | TGI (UO-31 renal) | GI50 (CAKI-1 renal) | GI50 (HCC-2998 colon) | GI50 (HL-60(TB) leukemia) | GI50 (HOP-62 NSCLC) | GI50 (HT29 colon) | GI50 (KM12 colon) | GI50 (NCI-H23 lung) | GI50 (NCI-H460 lung) | GI50 (OVCAR-5 ovarian) | GI50 (UO-31 renal)
NC(=O)CN1C=CCC(C(N)=O)=C1 | > 100 µM | > 100 µM | > 100 µM | > 100 µM | > 100 µM | > 100 µM | > 100 µM | > 100 µM | > 100 µM | > 100 µM | – | – | – | – | – | – | – | – | – | –
CC(C)=CCC[C@@H](C)C1=C(O)C(Nc2ccccc2I)=C(C)C(=O)C1=O | 41.3 µM | 56.7 µM | 4.39 µM | 23.1 µM | 28 µM | 19.7 µM | 38.9 µM | > 75 µM | > 75 µM | 35.7 µM | – | – | – | – | – | – | – | – | – | –
COC1=CC(=O)N(C)C(O)C1(C#N)OC1OC(CO)C(O)C(O)C1O (configuration not stated) | > 100 µM | > 100 µM | > 100 µM | > 100 µM | > 10 µM | > 100 µM | > 100 µM | > 100 µM | > 100 µM | > 100 µM | – | – | – | – | – | – | – | – | – | –
CCOC(=O)C1=C(O)c2ccc(C)cc2C(=O)C1=O | > 100 µM | > 100 µM | > 100 µM | > 100 µM | > 100 µM | > 100 µM | 98.8 µM | > 100 µM | > 100 µM | > 100 µM | – | – | – | – | – | – | – | – | – | –
CC1(C)C=C(/C=N/Nc2ccccc2)C(C#N)=C(O)C1(C#N)C#N | > 100 µM | > 100 µM | > 100 µM | > 100 µM | > 100 µM | > 100 µM | > 100 µM | > 100 µM | > 100 µM | > 100 µM | – | – | – | – | – | – | – | – | – | –
Clc1ccc(C2=CCN3CC=C(c4ccc(Cl)cc4)C23)cc1 | 27.4 µM | 11.3 µM | 19.7 µM | 26.7 µM | 17.8 µM | 19.2 µM | 26.8 µM | 22.4 µM | 17 µM | 20 µM | – | – | – | – | – | – | – | – | – | –
CC(C)c1cc(C(C)C)c(S(=O)(=O)N=[N+]=[N-])c(C(C)C)c1 | > 100 µM | > 100 µM | > 100 µM | > 100 µM | > 100 µM | > 100 µM | > 100 µM | > 100 µM | > 100 µM | > 100 µM | – | – | – | – | – | – | – | – | – | –
COc1ccccc1C1C(C#N)=C(N)Oc2n[nH]c(C)c21 (configuration not stated) | > 100 µM | > 100 µM | > 100 µM | > 100 µM | > 100 µM | > 100 µM | > 100 µM | > 100 µM | > 100 µM | > 100 µM | > 100 µM | > 100 µM | 62 µM | > 100 µM | > 100 µM | > 100 µM | > 100 µM | > 100 µM | > 100 µM | > 100 µM
CC(=O)C(C)(C)CCC(C)(C)C(C)=O | > 100 µM | > 100 µM | > 100 µM | > 100 µM | > 100 µM | > 100 µM | > 100 µM | > 100 µM | > 100 µM | > 100 µM | – | – | – | – | – | – | – | – | – | –
O=C1C2C=CC(n3[nH]c(=O)n(Cc4ccccc4)c3=O)CC2C(=O)N1c1ccc(Br)cc1 (configuration not stated) | > 100 µM | > 100 µM | > 100 µM | > 100 µM | > 100 µM | > 100 µM | > 100 µM | > 100 µM | > 100 µM | > 100 µM | – | – | – | – | – | – | – | – | – | –
C=C1C(C)C2C(Cc3ccccc3)NC(=O)C23OC(=O)/C=C\CC(=O)CCC(C)C/C=C/C3C1O (configuration not stated) | 2.24 µM | 18.5 µM | – | 7.33 µM | 11.1 µM | 12.7 µM | 12.5 µM | 21.7 µM | 25.2 µM | 2.72 µM | 0.474 µM | – | 0.158 µM and 0.755 µM | – | – | – | – | – | – | 0.913 µM
CC1CCC2(OC1)OC1C(O)C3C4CCC5CC(OC6OC(CO)C(OC7OC(CO)C(O)C(OC8OCC(O)C(O)C8O)C7OC7OC(CO)C(O)C(OC8OC(CO)C(O)C(O)C8O)C7O)C(O)C6O)C(O)CC5(C)C4CCC3(C)C1C2C (configuration not stated) | 2.68 µM | 4.69 µM | 7.21 µM | 3.92 µM | 11.8 µM | 4.77 µM | 4.41 µM | 3.35 µM | 4.12 µM | 3.66 µM | – | – | – | – | – | – | – | – | – | –
CN(C)CC1CCC(CN(C)C)C(=O)C1=O (configuration not stated) | 3.82 µM | 35.4 µM | 7.17 µM | 35.3 µM | 16.5 µM | 28.1 µM | 22.1 µM | 36.4 µM | 30.9 µM | 11 µM | – | – | – | – | – | – | – | – | – | –
Cc1nc(Nc2ccccc2Cl)sc1C(=O)CC(=O)C(N)=O | > 100 µM | > 100 µM | > 100 µM | > 100 µM | > 100 µM | > 100 µM | > 100 µM | > 100 µM | > 100 µM | > 100 µM | – | – | – | – | – | – | – | – | – | –
N/C(=N\N=C\c1ncccc1O)NO | 96.8 µM | > 100 µM | > 26.5 µM | > 93 µM | > 100 µM | > 100 µM | > 100 µM | > 100 µM | > 100 µM | > 86.2 µM | – | – | – | – | – | – | – | – | – | –

Source: PubChem BioAssay (NCI)
